Each structure is given as a SMILES string. Where a SMILES comes first, the peptide text is derived from it.

We go through 28 molecules from paper PMC11477965, “Synthesis and Anti-Liver Fibrosis Research of Aspartic Acid Derivatives” (Molecules, 2024).

In one series the test system is COL1A1 promoter. Description: COL1A1 promoter luciferase reporter inhibition assay in LX-2 cells.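 As to all read-outs here: Anti-fibrotic screen: luciferase reporter driven by the COL1A1 promoter in human hepatic stellate LX-2 cells, compounds applied in complete medium in 96-well plates.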 The class given is cell-based, human. Conditions: for inhibition at 500 µM: Homo sapiens, read-out: Inhibitory Rate (%) of COL1A1 promotor; for relative fluorescence unit (RFU) of COL1A1 promotor: mean ± SD, n = 3, Control 124874.7 ± 10750.9.

Method for COL1A1 promoter: A total of 32 target compounds, the lead compound L-Asp, and the positive control epigallocatechin gallate (EGCG), known for its anti-hepatic fibrotic activity [29], were tested for inhibitory effects on COL1A1 promoter activity at a concentration of 0.5 mM.
The LX-2 cells at 90% confluent were transfected with the plasmid of pGL4.17-COL1A1 promoter using Lipofectamine 2000 (Invitrogen, 11668019, Carlsbad, CA, USA) with Opti-MEM serum-free medium (Gibco, 1930104). After culturing for 6 h, the cells were replaced with a complete medium and seeded in 96-well plates for 24 h. The compound to be tested was prepared using a complete medium and added to the 96-well plate. After 24 h, Bright-Glo Luciferase Assay System (Promega, Madison, WI, USA) was used to detect the activity of COL1A1 promoter and the assaying inhibition rate.

The molecule `N[C@@H](CC(=O)Nc1nc(CO)cs1)C(=O)O` [Compound 4a, N^4-(4-(hydroxymethyl)thiazol-2-yl)-L-asparagine] registered a melting point of 257.8 to 259.4 °C. In addition, in the series with COL1A1 promoter (LX-2 cells, 0.5 mM, 24 h), the inhibition at 500 µM was 14.9 ± 8.45%. Moreover, the “relative fluorescence unit (RFU) of COL1A1 promotor” value (“relative fluorescence unit (RFU)” below) in the series with COL1A1 promoter (LX-2 cells) worked out at 106237.2 ± 10544.5 RFU.
As to `Cn1cc(O)c(=O)cc1CC(N)C(=O)O` (stereo not drawn) [Compound 20b, 2-amino-3-(5-hydroxy-1-methyl-4-oxo-1,4-dihydropyridin-2-yl)propanoic acid], the inhibition at 500 µM in the series on COL1A1 promoter (LX-2 cells, 0.5 mM, 24 h) was 24 ± 6.38%. Besides, the “relative fluorescence unit (RFU)” value in the series with COL1A1 promoter (LX-2 cells) is 94881.8 ± 7963.9 RFU.
In turn, `CN[C@@H](CCC(=O)O)C(=O)O` [Compound 1, Methyl-L-glutamic acid] had a melting point of 156.1 to 157.5 °C. Moreover, in the series on COL1A1 promoter (LX-2 cells, 0.5 mM, 24 h), the inhibition at 500 µM was under 0%. Moreover, the “relative fluorescence unit (RFU)” value in the series with COL1A1 promoter (LX-2 cells) amounted to 143674.9 ± 32109.7 RFU.
`Cc1cc(=O)n2c(CNC(=O)c3cccc(F)c3F)csc2n1` [Compound 28a, 2,3-difluoro-N-((7-methyl-5-oxo-5H-thiazolo [3,2-a]pyrimidin-3-yl)methyl)benzamide] came in with a melting point of 218 to 220.2 °C. In the series on COL1A1 promoter (LX-2 cells, 0.5 mM, 24 h), the inhibition at 500 µM stood at 43.9 ± 6.36%. In the series with COL1A1 promoter (LX-2 cells), the “relative fluorescence unit (RFU)” value was 70040.5 ± 7951.7 RFU.
With `Cc1cc(=O)n2c(CNc3ccccn3)csc2n1` [Compound 32a, 7-methyl-3-((pyridin-2-ylamino)methyl)-5H-thiazolo [3,2-a]pyrimidin-5-one], the inhibition at 500 µM with COL1A1 promoter (LX-2 cells, 0.5 mM, 24 h) was found to be 47.7 ± 4.81%. Also, the “relative fluorescence unit (RFU)” value with COL1A1 promoter (LX-2 cells) worked out at 65321.0 ± 6005.7 RFU.
In the case of `CNC(=O)C[C@H](N)C(=O)O` [Compound 4c, N^4-methyl-L-asparagine], in the series on COL1A1 promoter (LX-2 cells, 0.5 mM, 24 h), the inhibition at 500 µM was 35.5 ± 18.1%. Moreover, the “relative fluorescence unit (RFU)” value in the series on COL1A1 promoter (LX-2 cells) came out at 80485.7 ± 22615.1 RFU.
With `NC(=O)C[C@H](N)C(=O)N[C@@H](CC(=O)O)C(=O)O` [Compound 8b, L-asparaginyl-L-aspartic acid] (H-Asn-Asp-OH), the melting point was in the range of 195.3 to 198.6 °C. Moreover, the inhibition at 500 µM in the series on COL1A1 promoter (LX-2 cells, 0.5 mM, 24 h) was found to be 23.8 ± 4.57%. For the same molecule, in the series with COL1A1 promoter (LX-2 cells), the “relative fluorescence unit (RFU)” value came out at 95132.4 ± 5710.5 RFU.
For `N[C@@H](CC(=O)O)C(=O)NCCO` [Compound 6, (S)-3-amino-4-((2-hydroxyethyl)amino)-4-oxobutanoic acid], in the series with COL1A1 promoter (LX-2 cells, 0.5 mM, 24 h), the inhibition at 500 µM was under 0%. Also, the “relative fluorescence unit (RFU)” value in the series with COL1A1 promoter (LX-2 cells) amounted to 128613.0 ± 57574.1 RFU.
With `N[C@@H](CC(=O)OCc1cc(=O)c(O)co1)C(=O)O` [Compound 23a, (S)-2-amino-4-((5-hydroxy-4-oxo-4H-pyran-2-yl)methoxy)-4-oxobutanoic acid], the melting point is 156.3 to 158.7 °C. Moreover, in the series on COL1A1 promoter (LX-2 cells, 0.5 mM, 24 h), the inhibition at 500 µM stood at 27.9 ± 1.16%. The “relative fluorescence unit (RFU)” value in the series on COL1A1 promoter (LX-2 cells) is 90057.5 ± 1452.6 RFU.
In the case of `Cc1cc(=O)n2c(CC(=O)N[C@H]3CCOC3=O)csc2n1` [Compound 34a, (S)-2-(7-methyl-5-oxo-5H-thiazolo [3,2-a]pyrimidin-3-yl)-N-(2-oxotetrahydrofuran-3-yl)acetamide], the inhibition at 500 µM in the series with COL1A1 promoter (LX-2 cells, 0.5 mM, 24 h) was 15.5 ± 16.6%. The “relative fluorescence unit (RFU)” value with COL1A1 promoter (LX-2 cells) is on record as 105579.0 ± 20740.0 RFU.
For `O=C(O[C@@H]1Cc2c(O)cc(O)cc2O[C@@H]1c1cc(O)c(O)c(O)c1)c1cc(O)c(O)c(O)c1` [EGCG, epigallocatechin gallate, reference compound], in the series on COL1A1 promoter (LX-2 cells, 0.5 mM, 24 h), the “Inhibitory Rate (%) of COL1A1 promotor” value came out at 36.46 ± 4.64%. The “relative fluorescence unit (RFU)” value in the series with COL1A1 promoter (LX-2 cells) was determined as 79340.1 ± 5808.7 RFU.
`N[C@@H](CC(=O)OCc1ccc([N+](=O)[O-])cc1)C(=O)O` [Compound 11c, (S)-2-amino-4-((4-nitrobenzyl)oxy)-4-oxobutanoic acid] registered a melting point of 207.2 to 209.5 °C. For the same molecule, the inhibition at 500 µM with COL1A1 promoter (LX-2 cells, 0.5 mM, 24 h) is under 0%. The “relative fluorescence unit (RFU)” value in the series with COL1A1 promoter (LX-2 cells) was determined as 158140.3 ± 50740.1 RFU.
`Cc1oc(COC(=O)C[C@H](N)C(=O)O)cc(=O)c1O` [Compound 23b, (S)-2-amino-4-((5-hydroxy-6-methyl-4-oxo-4H-pyran-2-yl)methoxy)-4-oxobutanoic acid]: in the series with COL1A1 promoter (LX-2 cells, 0.5 mM, 24 h), the inhibition at 500 µM was 34.6 ± 1.75%. Besides, in the series with COL1A1 promoter (LX-2 cells), the “relative fluorescence unit (RFU)” value is 81660.6 ± 2179.5 RFU.
As for `Cc1ccc(COC(=O)C[C@H](N)C(=O)O)cc1` [Compound 11a, (S)-2-amino-4-((4-methylbenzyl)oxy)-4-oxobutanoic acid], the melting point fell in the range of 228.1 to 229.6 °C. For the same molecule, in the series with COL1A1 promoter (LX-2 cells, 0.5 mM, 24 h), the inhibition at 500 µM was 11.4 ± 18.5%. For the same molecule, in the series with COL1A1 promoter (LX-2 cells), the “relative fluorescence unit (RFU)” value worked out at 110620.0 ± 23148.4 RFU.
For `NC(Cc1cc(=O)c(O)co1)C(=O)O` (stereo not drawn) [Compound 20a, 2-amino-3-(5-hydroxy-4-oxo-4H-pyran-2-yl)propanoic acid], the melting point was in the range of 217.1 to 219.8 °C. Further, the inhibition at 500 µM in the series on COL1A1 promoter (LX-2 cells, 0.5 mM, 24 h) was 17.9 ± 10.1%. In the series with COL1A1 promoter (LX-2 cells), the “relative fluorescence unit (RFU)” value turned out to be 102508.7 ± 12580.9 RFU.
As to `N[C@@H](CC(=O)O)C(=O)OCc1ccc(F)cc1` [Compound 11e, (S)-3-amino-4-((4-fluorobenzyl)oxy)-4-oxobutanoic acid], the melting point lay within 197.6 to 199.5 °C. In addition, the inhibition at 500 µM with COL1A1 promoter (LX-2 cells, 0.5 mM, 24 h) is 27.9 ± 5.81%. The “relative fluorescence unit (RFU)” value in the series on COL1A1 promoter (LX-2 cells) turned out to be 89998.6 ± 7257.5 RFU.
Take `Cc1cc(=O)n2c(CN[C@@H](CC(=O)O)C(=O)O)csc2n1` [Compound 33, ((7-methyl-5-oxo-5H-thiazolo [3,2-a]pyrimidin-3-yl)methyl)-L-aspartic acid]: the inhibition at 500 µM in the series on COL1A1 promoter (LX-2 cells, 0.5 mM, 24 h) amounted to 6.39 ± 7.06%. The “relative fluorescence unit (RFU)” value in the series on COL1A1 promoter (LX-2 cells) was 116893.2 ± 8812.8 RFU.
The molecule `N[C@@H](CC(=O)Nc1nccs1)C(=O)O` [Compound 4b, N^4-(thiazol-2-yl)-L-asparagine] registered a melting point of 268.9 to 271.2 °C. In the series with COL1A1 promoter (LX-2 cells, 0.5 mM, 24 h), the inhibition at 500 µM was found to be 31.2 ± 14.3%. Also, the “relative fluorescence unit (RFU)” value in the series on COL1A1 promoter (LX-2 cells) is listed as 85934.6 ± 17864.6 RFU.
Regarding `Cc1cc(=O)n2c(COC(=O)C[C@H](N)C(=O)O)csc2n1` [Compound 31, (S)-2-amino-4-((7-methyl-5-oxo-5H-thiazolo [3,2-a]pyrimidin-3-yl)methoxy)-4-oxobutanoic acid], in the series on COL1A1 promoter (LX-2 cells, 0.5 mM, 24 h), the inhibition at 500 µM is 14.6 ± 3.11%. Moreover, the “relative fluorescence unit (RFU)” value in the series with COL1A1 promoter (LX-2 cells) was determined as 106608.6 ± 3888.3 RFU.
`O=C(O)C[C@H](NC(=O)OCC1c2ccccc2-c2ccccc21)C(=O)NCCO` [Compound 5, (S)-3-((((9H-fluoren-9-yl)methoxy)carbonyl)amino)-4-((2-hydroxyethyl)amino)-4-oxobutanoic acid] had a melting point of 113.6 to 115.1 °C. The inhibition at 500 µM in the series with COL1A1 promoter (LX-2 cells, 0.5 mM, 24 h) is 24 ± 15.4%. Further, in the series on COL1A1 promoter (LX-2 cells), the “relative fluorescence unit (RFU)” value came to 94919.5 ± 19273.7 RFU.
With `Cc1cc(=O)n2c(CC(=O)N[C@@H](CC(=O)O)C(=O)O)csc2n1` [Compound 35, (2-(7-methyl-5-oxo-5H-thiazolo [3,2-a]pyrimidin-3-yl)acetyl)-L-aspartic acid], the melting point lay in the range of 253.1 to 256.8 °C. For the same molecule, the inhibition at 500 µM with COL1A1 promoter (LX-2 cells, 0.5 mM, 24 h) was under 0%. Moreover, the “relative fluorescence unit (RFU)” value in the series with COL1A1 promoter (LX-2 cells) was determined as 161478.3 ± 67708.9 RFU.
The matching figures for `N[C@@H](CC(=O)OCc1ccc(F)cc1)C(=O)O` [Compound 11b, (S)-2-amino-4-((4-fluorobenzyl)oxy)-4-oxobutanoic acid]: 227.6 to 230.2 °C, under 0% and 130725.3 ± 8310.2 RFU.
Take `Cc1ccc(COC(=O)[C@@H](N)CC(=O)O)cc1` [Compound 11d, (S)-3-amino-4-((4-methylbenzyl)oxy)-4-oxobutanoic acid]: the melting point was 205.1 to 207.3 °C. The inhibition at 500 µM in the series with COL1A1 promoter (LX-2 cells, 0.5 mM, 24 h) came out at 19.9 ± 4.99%. For the same molecule, in the series on COL1A1 promoter (LX-2 cells), the “relative fluorescence unit (RFU)” value came out at 100087.5 ± 6229.2 RFU.
For the molecule `N[C@@H](CC(=O)OCc1cc(=O)n2ccsc2n1)C(=O)O` [Compound 37, (S)-2-amino-4-oxo-4-((5-oxo-5H-thiazolo [3,2-a]pyrimidin-7-yl)methoxy)butanoic acid], the inhibition at 500 µM in the series with COL1A1 promoter (LX-2 cells, 0.5 mM, 24 h) worked out at 8.46 ± 8.16%. The “relative fluorescence unit (RFU)” value with COL1A1 promoter (LX-2 cells) turned out to be 114307.8 ± 10191.8 RFU.
`N[C@@H](CC(=O)O)C(=O)OCc1ccc([N+](=O)[O-])cc1` [Compound 11f, (S)-3-amino-4-((4-nitrobenzyl)oxy)-4-oxobutanoic acid] returned a melting point of 190.6 to 192.1 °C. Also, the inhibition at 500 µM in the series on COL1A1 promoter (LX-2 cells, 0.5 mM, 24 h) came out at 20.6 ± 14.3%. The “relative fluorescence unit (RFU)” value with COL1A1 promoter (LX-2 cells) came to 99123.6 ± 17860.3 RFU.
`Cc1cc(=O)n2c(CNC(=O)[C@H](N)CCO)csc2n1` [Compound 29, (R)-2-amino-4-hydroxy-N-((7-methyl-5-oxo-5H-thiazolo [3,2-a]pyrimidin-3-yl)methyl)butanamide]: in the series on COL1A1 promoter (LX-2 cells, 0.5 mM, 24 h), the inhibition at 500 µM was 33.2 ± 33.3%. Moreover, the “relative fluorescence unit (RFU)” value with COL1A1 promoter (LX-2 cells) is recorded as 83406.5 ± 41616.9 RFU.
As to `CCNC(=O)C[C@H](N)C(=O)O` [Compound 4d, N^4-ethyl-L-asparagine], the inhibition at 500 µM in the series with COL1A1 promoter (LX-2 cells, 0.5 mM, 24 h) was determined as 33.1 ± 19%.
`COC(=O)[C@H]1C[C@H](Oc2cc(C)nn3c(-c4ccc(OC)c(OC)c4)cnc23)CN1` [Compound 43, Methyl (2R,4S)-4-((3-(3,4-dimethoxyphenyl)-6-methylimidazo [1,2-b]pyridazin-8-yl)oxy)pyrrolidine-2-carboxylate] gave a melting point of 127.2 to 129.6 °C. In the series on COL1A1 promoter (0.5 mM, versus 45), the “fold decrease in COL1A1 promoter inhibitory activity relative to 45” value was 1.8 fold. In the series with COL1A1 promoter (LX-2 cells, 0.5 mM, 24 h), the inhibition at 500 µM turned out to be 38.2 ± 3.28%. The “relative fluorescence unit (RFU)” value with COL1A1 promoter (LX-2 cells) is on record as 77132.5 ± 4101.8 RFU.
